# From US20250171437A1 (Agios Pharmaceuticals,Inc., priority 2022, published 2025)
# Molecular target: T1, human PAH with the R408W mutation (A375 R408W cells) (Homo sapiens, UniProt P00439, R408W)
# T1 construct: expressed in transfected cells
# T1 sequence (P00439 1-452 R408W): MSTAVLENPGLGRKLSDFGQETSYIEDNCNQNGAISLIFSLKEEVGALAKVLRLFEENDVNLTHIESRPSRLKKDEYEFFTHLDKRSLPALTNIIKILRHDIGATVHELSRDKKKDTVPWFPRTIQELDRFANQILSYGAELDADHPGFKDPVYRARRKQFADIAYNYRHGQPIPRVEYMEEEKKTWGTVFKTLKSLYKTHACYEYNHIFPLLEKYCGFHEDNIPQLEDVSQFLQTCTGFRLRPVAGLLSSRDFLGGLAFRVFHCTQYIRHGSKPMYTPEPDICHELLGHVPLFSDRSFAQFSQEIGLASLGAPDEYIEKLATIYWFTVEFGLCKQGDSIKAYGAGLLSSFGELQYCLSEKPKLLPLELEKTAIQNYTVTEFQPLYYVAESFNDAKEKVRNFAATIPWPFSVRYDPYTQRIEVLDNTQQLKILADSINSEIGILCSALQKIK
# Experiment: Cell Based Phenylalanine Flux Assay
# Conditions: A375 R408W cells; 24 hrs with compound, then 20 μM sepiapterin and 800 μM 13C9,15N-Phenylalanine for 4 hours; 13C-Tyrosine by LC-MS; average where tested multiple times
# In short: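 Phenylalanine-to-tyrosine flux is measured in A375 cells carrying stable human R408W PAH. After 24 h compound exposure, 13C9,15N-Phe (800 μM) with sepiapterin (20 μM) is supplied for 4 h and media 13C-Tyr is read by LC-MS; AC50s are binned.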
row,AC50 [nM],Structure (SMILES)
1,1000 to 5000,"Cn1cc(-c2nnc(C(=O)N3CCc4[nH]cnc4[C@@H]3c3nc4c(F)c(F)ccc4o3)o2)cn1 [Example 646, (R)-(4-(4,5-difluorobenzo[d]oxazol-2-yl)-6,7-dihydro-1H-imidazo[4,5-c]pyridin-5(4H)-yl)(5-(1-methyl-1H-pyrazol-4-yl)-1,3,4-oxadiazol-2-yl)methanone]"
2,500 to 1000,"O=C(c1ocnc1C(F)F)N1CCc2[nH]cnc2[C@@H]1c1nc2c(F)cccc2o1 [Example 170, (R)-(4-(difluoromethyl)oxazol-5-yl)(4-(4-fluorobenzo[d]oxazol-2-yl)-6,7-dihydro-1H-imidazo[4,5-c]pyridin-5(4H)-yl)methanone]"
3,1000 to 5000,"O=C(c1oc(-c2ncccn2)nc1C(F)F)N1CCc2[nH]cnc2[C@H]1c1nc2cc(F)ccc2o1 [Example 661, (S)-(4-(difluoromethyl)-2-(pyrimidin-2-yl)oxazol-5-yl)(4-(5-fluorobenzo[d]oxazol-2-yl)-6,7-dihydro-1H-imidazo[4,5-c]pyridin-5(4H)-yl)methanone]"
4,1000 to 5000,"Cc1ccc2nc([C@H]3c4nc[nH]c4CCN3C(=O)c3nnc(-c4ccn(C)n4)o3)oc2c1 [Example 358, (R)-(5-(1-methyl-1H-pyrazol-3-yl)-1,3,4-oxadiazol-2-yl)(4-(6-methylbenzo[d]oxazol-2-yl)-6,7-dihydro-1H-imidazo[4,5-c]pyridin-5(4H)-yl)methanone]"
5,500 to 1000,"CN1CCN(c2nc(C(F)F)c(C(=O)N3CCc4[nH]cnc4[C@@H]3c3nc4cccc(F)c4o3)o2)CC1 [Example 618, (R)-(4-(difluoromethyl)-2-(4-methylpiperazin-1-yl)oxazol-5-yl)(4-(7-fluorobenzo[d]oxazol-2-yl)-6,7-dihydro-1H-imidazo[4,5-c]pyridin-5(4H)-yl)methanone]"
6,1000 to 5000,"Cc1nc([C@@H](C)O)oc1C(=O)N1CCc2[nH]cnc2[C@H]1c1nc2cc(F)ccc2o1 [Example 135, ((S)-4-(5-fluorobenzo[d]oxazol-2-yl)-6,7-dihydro-1H-imidazo[4,5-c]pyridin-5(4H)-yl)(2-((R)-1-hydroxyethyl)-4-methyloxazol-5-yl)methanone]"
7,≤ 500,"O=C(c1ocnc1C(F)F)N1CCc2[nH]cnc2[C@H]1c1nc2c(Cl)cccc2o1 [Example 437, [(4S)-4-(4-chloro-1,3-benzoxazol-2-yl)-1,4,6,7-tetrahydroimidazo[4,5-c]pyridin-5-yl]-[4-(difluoromethyl)oxazol-5-yl]methanone]"
8,≤ 500,"[2H][C@@]1(c2nc3cccc(F)c3o2)c2nc[nH]c2CCN1C(=O)c1ocnc1C(F)F [Example 899, (S)-(4-(difluoromethyl)oxazol-5-yl)(4-deuterium-4-(7-fluorobenzo[d]oxazol-2-yl)-6,7-dihydro-1H-imidazo[4,5-c]pyridin-5(4H)-yl)methanone]"
9,1000 to 5000,"CN(C)Cc1cn2ncc(C(=O)N3CCc4[nH]cnc4[C@@H]3c3nc4cc(F)ccc4o3)c2cc1Cl [Example 204, (R)-(5-chloro-6-((dimethylamino)methyl)pyrazolo[1,5-a]pyridin-3-yl)(4-(5-fluorobenzo[d]oxazol-2-yl)-6,7-dihydro-1H-imidazo[4,5-c]pyridin-5(4H)-yl)methanonee]"
10,≤ 500,"Cc1cccc2nc([C@@H]3c4nc[nH]c4CCN3C(=O)c3ccnn3C(F)(F)F)oc12 [Example 710, (S)-(4-(7-methylbenzo[d]oxazol-2-yl)-6,7-dihydro-1H-imidazo[4,5-c]pyridin-5(4H)-yl)(1-(trifluoromethyl)-1H-pyrazol-5-yl)methanone]"
11,500 to 1000,"O=C(c1cnco1)N1CCc2[nH]cnc2[C@H]1c1nc2c(F)ccc(F)c2o1 [Example 483, (S)-(4-(4,7-difluorobenzo[d]oxazol-2-yl)-6,7-dihydro-1H-imidazo[4,5-c]pyridin-5(4H)-yl)(oxazol-5-yl)methanone]"
12,500 to 1000,"O=C(c1ocnc1C(F)F)N1CCc2[nH]cnc2[C@@H]1c1nc2cc(F)ccc2o1 [Example 52, (R)-(4-(difluoromethyl)oxazol-5-yl)(4-(5-fluorobenzo[d]oxazol-2-yl)-6,7-dihydro-1H-imidazo[4,5-c]pyridin-5(4H)-yl)methanone]"
13,≤ 500,"Cc1nc([C@@H](C)O)oc1C(=O)N1CCc2[nH]cnc2[C@H]1c1nc2cccc(F)c2o1 [Example 217, ((S)-4-(7-fluorobenzo[d]oxazol-2-yl)-6,7-dihydro-1H-imidazo[4,5-c]pyridin-5(4H)-yl)(2-((R)-1-hydroxyethyl)-4-methyloxazol-5-yl)methanone]"
14,≤ 500,"Cc1ccc2nc([C@@H]3c4nc[nH]c4CCN3C(=O)c3ccnn3C(F)F)oc2c1 [Example 317, (S)-(1-(difluoromethyl)-1H-pyrazol-5-yl)(4-(6-methylbenzo[d]oxazol-2-yl)-6,7-dihydro-1H-imidazo[4,5-c]pyridin-5(4H)-yl)methanone]"

# More lines, now with the values behind:
row,Structure (SMILES),AC50 [nM]
1,"O=C(c1ocnc1C(F)(F)F)N1CCc2[nH]cnc2[C@@H]1c1nc2ccccc2o1 [Example 798, (R)-(4-(benzo[d]oxazol-2-yl)-6,7-dihydro-1H-imidazo[4,5-c]pyridin-5(4H)-yl)(4-(trifluoromethyl)oxazol-5-yl)methanone]",500 to 1000
2,"O=C(CC1CC1)N1CCc2[nH]cnc2[C@H]1c1nc2ccc(Br)cc2o1 [Example 3, (S)-1-(4-(6-bromobenzo[d]oxazol-2-yl)-6,7-dihydro-1H-imidazo[4,5-c]pyridin-5(4H)-yl)-2-cyclopropylethanone]",≤ 500
3,"CN(C)c1ccc2c(C(=O)N3CCc4[nH]cnc4[C@H]3c3nc4cc(F)ccc4o3)cnn2c1 [Example 91, (S)-(6-(dimethylamino)pyrazolo[1,5-a]pyridin-3-yl)(4-(5-fluorobenzo[d]oxazol-2-yl)-6,7-dihydro-1H-imidazo[4,5-c]pyridin-5(4H)-yl)methanone]",500 to 1000
4,"CC(C)(O)c1nc(C(F)(F)F)c(C(=O)N2CCc3[nH]cnc3[C@H]2c2nc3cccc(F)c3o2)o1 [Example 253, (S)-(4-(7-fluorobenzo[d]oxazol-2-yl)-6,7-dihydro-1H-imidazo[4,5-c]pyridin-5(4H)-yl)(2-(2-hydroxypropan-2-yl)-4-(trifluoromethyl)oxazol-5-yl)methanone]",≤ 500
5,"Cn1cc(-c2nnc(C(=O)N3CCc4[nH]cnc4[C@@H]3c3nc4cccc(F)c4o3)o2)cn1 [Example 192, (R)-(4-(7-fluorobenzo[d]oxazol-2-yl)-6,7-dihydro-1H-imidazo[4,5-c]pyridin-5(4H)-yl)(5-(1-methyl-1H-pyrazol-4-yl)-1,3,4-oxadiazol-2-yl)methanone]",1000 to 5000
6,"O=C(c1ocnc1C(F)(F)F)N1CCc2[nH]cnc2[C@@H]1c1nc2cc(Br)ccc2o1 [Example 148, (R)-(4-(5-bromobenzo[d]oxazol-2-yl)-6,7-dihydro-1H-imidazo[4,5-c]pyridin-5(4H)-yl)(4-(trifluoromethyl)oxazol-5-yl)methanone]",≤ 500
7,"O=C(c1ocnc1C(F)F)N1CCc2[nH]cnc2[C@H]1c1nc2cc(Br)ccc2o1 [Example 149, (S)-(4-(5-bromobenzo[d]oxazol-2-yl)-6,7-dihydro-1H-imidazo[4,5-c]pyridin-5(4H)-yl)(4-(difluoromethyl)oxazol-5-yl)methanone]",≤ 500
8,"Cc1cccc2oc([C@@H]3c4nc[nH]c4CCN3C(=O)c3nnc(-c4ccccn4)o3)nc12 [Example 482, (S)-(4-(4-methylbenzo[d]oxazol-2-yl)-6,7-dihydro-1H-imidazo[4,5-c]pyridin-5(4H)-yl)(5-(pyridin-2-yl)-1,3,4-oxadiazol-2-yl)methanone]",≤ 500
9,"Cc1ccc2nc([C@@H]3c4nc[nH]c4CCN3C(=O)c3oc(C(C)(C)O)nc3C)oc2c1 [Example 319, (S)-(2-(2-hydroxypropan-2-yl)-4-methyloxazol-5-yl)(4-(6-methylbenzo[d]oxazol-2-yl)-6,7-dihydro-1H-imidazo[4,5-c]pyridin-5(4H)-yl)methanone]",500 to 1000

# Same assay, conditions: A375 cells expressing R408W PAH; 24 hrs with compound, then 20 μM sepiapterin and 800 μM 13C9,15N-Phenylalanine for 4 hours; 13C-Tyrosine by LC-MS; average where tested multiple times
row,AC50 [nM],Structure (SMILES)
1,≥ 5000,Cn1nc(-c2ccccn2)nc1C(=O)N1CCc2[nH]cnc2C1c1nc2cccc(F)c2o1 (centres unmarked)
2,1000 to 5000,O=C(Cc1cnco1)N1CCc2[nH]cnc2C1c1nc2cc(F)ccc2o1 (centres unmarked)
3,≥ 5000,Cn1nc(C(C)(C)O)cc1C(=O)N1CCc2[nH]cnc2C1c1nc2cc(F)ccc2o1 (centres unmarked)
4,1000 to 5000,O=C(c1nnc(-c2cnn(C(F)F)c2)o1)N1CCc2[nH]cnc2C1c1nc2cccc(C(F)(F)F)c2o1 (centres unmarked)
5,1000 to 5000,O=C(c1cn(-c2ccccn2)nc1Cl)N1CCc2[nH]cnc2C1c1nc2cc(F)ccc2o1 (centres unmarked)

# The next lines start with the molecule.
row,Structure (SMILES),AC50 [nM]
1,Cn1nc(C(F)F)cc1C(=O)N1CCc2[nH]cnc2C1c1nc2cc(F)ccc2o1 (centres unmarked),1000 to 5000
2,N#Cc1ccc2c(C(=O)N3CCc4[nH]cnc4C3c3nc4cc(F)ccc4o3)cnn2c1 (centres unmarked),1000 to 5000
3,CC(C)(O)c1cc(C(=O)N2CCc3[nH]cnc3C2c2nc3cccc(F)c3o2)on1 (centres unmarked),1000 to 5000
4,Cn1cnnc1C(=O)N1CCc2[nH]cnc2C1c1nc2ccc(F)cc2o1 (centres unmarked),1000 to 5000
5,Cn1nc(C(F)F)nc1C(=O)N1CCc2[nH]cnc2C1c1nc2c(F)cc(F)cc2o1 (centres unmarked),1000 to 5000
6,O=C(c1nncn1C1CC1)N1CCc2[nH]cnc2C1c1nc2ccc(F)cc2o1 (centres unmarked),1000 to 5000
7,CC(C)(O)c1ncc(C(=O)N2CCc3[nH]cnc3C2c2nc3cc(F)ccc3o2)s1 (centres unmarked),1000 to 5000
